The values that follow come from PMC12017328, “RNA toehold switch-based reporter assay to assess bacterial uptake of antisense oligomers” (mBio, 2025).

Data set [1] deals with Salmonella carrying the TS7::sfGFP reporter plasmid. Description: Toehold switch reporter assay, microplate reader. The format is cell-based, Salmonella enterica serovar Typhimurium strain SL1344. The following applies: CPP conjugated to PNA_toe, 5 µM, TS7-Mut_9::sfGFP, 17 h, MHB; for Fold increase in fluorescence compared to the water-treated control: normalized to OD600. The source says: Next, we tested whether 11-mer PNAs can activate the toehold switch in bacteria. We established the reporter assay in Salmonella enterica serovar Typhimurium (referred to as Salmonella hereafter), which we have previously used as a model organism for studying PNAs ([13], [17], [22]). In constructing a reporter plasmid, we cloned the TS7 sequence upstream of the coding sequence of superfolder GFP (sfGFP) and downstream of a constitutive PLtetO-1 promoter in the pXG10-SF vector ([35]) (see Materials and Methods for details). The final product is a fusion protein (TS7::sfGFP) in which the 10 amino acids from the short TS7 coding sequence are genetically linked to the N-terminus of sfGFP. We introduced the reporter plasmid in Salmonella. The bacteria were grown to an early log-phase in standard Mueller-Hinton broth (MHB), commonly used for testing antibacterial activity ([36]). As a proof-of-concept, we chose to deliver the PNAs through conjugation with (KFF)3K, a frequently used CPP (referred to as KFF hereafter). We tested two PNAs, PNA_toe as used above in vitro and a PNA that targets the mid-stem region (PNA_mid) of the switch (Fig. 2A). We treated the bacterial culture with varying concentrations (2.5 µM, 5 µM, or 7.5 µM) of the KFF-PNAs in a microtiter plate, recording GFP fluorescence and turbidity as bacterial growth continued.
(§1) Overnight cultures of respective bacterial strains (listed in Table S5) were diluted 1:100 in fresh MHB and grown to OD600 0.3. Overnight and secondary cultures were prepared with or without chloramphenicol (20 µg/mL) depending on the antibiotic resistance profile of the strain. Ninty-five microliters of the 0.3 OD600 bacterial suspension was distributed in the 96-well plate and mixed with 5 µL water or 20× CPP PNA working solutions (150 µM, 100 µM or 50 µM stocks in water). An equivalent volume of water was added to the bacteria to serve as untreated control. For testing the activity in other growth media (M9 minimal medium and LB), the bacteria were cultured in the respective media and treated as described above.
(§2) The PNA-treated samples were incubated in the plate reader for 4–24 h at 37°C, with continuous double-orbital shaking (237 counts per minute). The fluorescence (λex 480 nm/λem 510 nm) and OD600 were recorded in a Synergy H1 plate reader (Biotek) by measuring every 20 min. The bacteria were sampled at various time points post-treatment and further analyzed by flow cytometry.
(§3) Normalization of fluorescence intensity (FInorm) = FI (sample)−FI (medium background)/OD
Fold upregulation in fluorescence intensity (FI) from the plate reader was calculated as follows:
fold upregulation = FI (normalized sample)/FI (normalized control)
In general terms: In a reporter assay the amount or activity of a reporter protein is the signal.

For data set [2], the system named is Salmonella, UPEC 536, E. coli MG1655 and BW25113 expressing TS7-Mut_9::sfGFP. Description: Toehold switch reporter assay, flow cytometry, statements for all strains. The conditions noted are these: CPP conjugated to PNA_toe, 5 µM; for Dynamics of sfGFP upregulation: measured at 4, 6 and 17 h, all strains. The format is cell-based, Salmonella enterica; E. coli. Here is the method: According to previous RNA-seq analyses ([12], [13], [22]), CPP-PNAs can strongly downregulate target mRNAs within 15 min. […] We therefore repeated the screen conducted and assayed fluorescence by flow cytometry at 4, 6, and 17 h post-treatment. […] The level of upregulation observed in the E. coli K12 strains was again substantially lower than in Salmonella and UPEC 536. […] This might be related to the stability of KFF in the culture media.
Fig 9 Flow cytometric analysis of fluorescence of sfGFP informs on delivery efficiency of CPPs. Bacterial cultures expressing the TS7-Mut_9::sfGFP reporter construct treated with the indicated CPP-PNA_toe constructs at 5 µM each. The median fluorescence intensity of sfGFP was measured after 4 h (black bars), 6 h (dark gray bars), and 17 h (light gray bars) of treatment using flow cytometry. Relative upregulation of sfGFP is shown and was calculated by dividing the median fluorescence intensity of the test samples by the median fluorescence intensity of the control samples, to which water was added. Error bars indicate the standard deviation calculated from two independent experiments.
as §1
(§4) Bacterial cells were treated as described above, fixed with 4% paraformaldehyde (PFA) in phosphate-buffered saline (PBS) after the indicated time points, and stained with 1 µg/mL DAPI for flow cytometric measurement of DAPI-positive bacterial cells. Cell suspensions were diluted by a factor of ~100–1,000 in PBS and sampled from 96-well plates to achieve ~2,000 counts/s for flow cytometric measurements. Flow cytometry was performed using the Agilent Novocyte flow cytometer with a high-throughput sampler, and 100,000 events were recorded per sample. The DAPI fluorescence was detected using the Pacific Blue channel; sfGFP and mNeon were detected in the FITC channel, and mCherry fluorescence in the PE-Texas Red channel. The lower threshold for FSC-H was set to 2,000 to eliminate the potential artifacts from smaller particles such as dust, bubbles, or cell debris. The wild-type strains without plasmids served as a control to detect the background fluorescence, termed bacterial background. A contour plot with FSC and SSC, each with bins defined on a logarithmic scale was used to select singlets. The gating strategy is described in Fig.S6. The median fluorescence intensity was used for calculating the fold upregulation of fluorescence. Flow cytometry data sets were analyzed using the Novocyte software (Agilent).
(§5) Fold upregulation in median fluorescence intensity (FI) from flow cytometry was calculated as follows:
(§6) fold upregulation = FI (sample)−FI(bacterial background)/FI (water control)−FI(bacterial background)

The subject of data set [3] is Salmonella carrying the TS7::sfGFP reporter plasmid. Description: Toehold switch reporter assay, flow cytometry. It is filed as cell-based, Salmonella enterica serovar Typhimurium strain SL1344. Here is the method: as §1, §2, §4, §5, §6
Data set [4] deals with Salmonella ΔsbmA mutant carrying TS7-Mut_9::sfGFP. Description: Toehold switch reporter assay, flow cytometry, ΔsbmA mutant. The following applies: 5 µM, 4 h. The format is cell-based, Salmonella enterica serovar Typhimurium. The text has this:
To confirm that activation of the toehold-switch reporter correlates with successful uptake of PNAs, we used a Salmonella ΔsbmA mutant strain unable to express the inner membrane transporter SbmA. […] In the ΔsbmA strain, treatment with KFF-PNA_toe triggered only marginal GFP expression in a small subpopulation of cells (ca 20%) as opposed to nearly 100% of all cells in the corresponding wild-type strain (Fig. 6A). The overall fluorescence intensity (FI) of the ΔsbmA mutant was also much lower than the wild-type strain (Fig. 6B).
Fig 6 Flow cytometric analysis of CPP-PNA uptake using the toehold switch reporter in a ΔsbmA mutant of Salmonella. […] (B) Median fluorescence intensity values for water-treated control (Control, black) and PNA-treated (KFF-PNA_toe, orange) samples are given in the plots. […]
Bacterial cells were treated as described above, fixed with 4% paraformaldehyde (PFA) in phosphate-buffered saline (PBS) after the indicated time points, and stained with 1 µg/mL DAPI for flow cytometric measurement of DAPI-positive bacterial cells. […] Flow cytometry was performed using the Agilent Novocyte flow cytometer with a high-throughput sampler, and 100,000 events were recorded per sample. The DAPI fluorescence was detected using the Pacific Blue channel; sfGFP and mNeon were detected in the FITC channel, and mCherry fluorescence in the PE-Texas Red channel. […]

Data set [5] concerns E. coli BW25113, MG1655 and UPEC 536 carrying TS7-Mut_9::sfGFP. Description: Toehold switch reporter assay, microplate reader, E. coli strains. The format is cell-based. The following applies: CPP conjugated to PNA_toe; 5 µM; 17 h; MHB; all three E. coli strains.
Source text: Having established the CPP screening assay in Salmonella, we next tested it in E. coli. We chose the E. coli K12 strains BW25113 and MG1655, and the uropathogenic isolate E. coli 536 (UPEC 536). […] To test if the low fluorescence was due to lower sfGFP protein levels, we performed a western blot analysis after treating the bacteria with CPP-PNAs (Fig. S4). The upregulation of sfGFP protein correlated with fluorescence upregulation. The E. coli K12 strains were less susceptible than Salmonella. For these strains, a more sensitive method compared to the microplate reader such as flow cytometry might provide better results.
Fig 8 Examining the performance of the toehold switch assay for screening of CPPs against E. coli. Various E. coli strains carrying the TS7-Mut_9::sfGFP encoding plasmid were treated with different CPP-PNA_toe constructs at 5 µM. As negative control, an equal volume of water (Control) was added instead. (A) Fluorescence intensity of sfGFP was recorded in a microplate reader for 17 h post-treatment measured in a microplate reader. (B) Upregulation in sfGFP fluorescence calculated relative to the water control based on the normalized fluorescence intensities at 17 h post-treatment. The experiment was performed two times, and bars indicate the mean value; error bars indicate the standard deviation from two independent experiments.
Overnight cultures of respective bacterial strains (listed in Table S5) were diluted 1:100 in fresh MHB and grown to OD600 0.3. […]
as §2, §3
Fold upregulation in fluorescence intensity (FI) from the plate reader was calculated as follows: […]

The conditions of data set [6]: cited from earlier work. The text has this:
For example, we observed a rapid but transient increase in fluorescence for some CPPs (e.g., KFF) and a sustained increase for others (e.g., RXR). This variation can likely be explained by the chemistry and stability of these carriers. […] Therefore, the different dynamics in fluorescence increase c ...

As to “GRRRRRRRRRPPQ [R9-TAT, cell-penetrating peptide …]”, in data set [1], the “Fold increase in fluorescence compared to the water-treated control” value (“Fold increase in fluorescence” for short) was “negligible upregulation”. The “Dynamics of sfGFP upregulation” value in data set [2] was “only showed upregulation at the 17 h time point”.

Consider KFFKFFKFFK [KFF-PNA_ctrl], for which the “Activation of GFP expression” value in data set [3] (TS7::sfGFP, 7.5 µM, 4 h post-treatment, MHB) is “did not activate GFP expression”.

Regarding KFFKFFKFFK [KFF-PNA_toe], the “Upregulation of the reporter (median fluorescence vs water control)” value in data set [3] (TS7-Mut_9::sfGFP, 5 µM, 4 h, Luria broth (LB)) is given as 6- to 8 fold; in data set [3] (original TS7::sfGFP, 4 h, MHB), “around 30 fold”. In addition, the “Activation of the reporter (median fluorescence vs water control)” value in data set [3] (TS7-Mut_9::sfGFP, 5 µM, 4 h, M9 minimal medium) is given as 50- to 60 fold; in data set [3] (TS7-Mut_9::sfGFP, 5 µM, 4 h, MHB, two independent experiments) it was 50- to 60 fold. For the same substance, the “Activation of the reporter compared with the original switch” value in data set [3] (TS7-Mut_13::sfGFP, 5 µM, 4 h, MHB) is on record as “no improvement over the original switch”; in data set [3] (TS7-Mut_18::sfGFP, 5 µM, 4 h, MHB), “no improvement over the original switch”. In addition, the GFP positive population in data set [3] (wild-type, TS7-Mut_9::sfGFP, 5 µM, 4 h) is roughly 100%; in data set [4], roughly 20%.

Regarding “KFFKFFKFFK [cell-penetrating peptide …, carrier for PNA]”, in data set [1], the “Fold increase in fluorescence” value is on record as “highest fold increase in fluorescence” and the “Speed of increase in fluorescence signal” value is “rapid increase in fluorescence signal”. For the same substance, in data set [5], the “Reporter activation (sfGFP fluorescence vs water control)” value is on record as “highest reporter activation”. For the same substance, the “Change of fluorescence over time” value in data set [2] (4, 6 and 17 h) was “decrease”. In data set [2], the “Dynamics of sfGFP upregulation” value was “rapid upregulation at 4 h”. Also, the “Stability to proteases and in culture medium” value in data set [6] was “sensitive to proteases and degraded in nutrient-rich media such as MHB”.

In the case of “RKKRRQRR [Seq35, cell-penetrating peptide RKKRRQRR]”, the “Dynamics of sfGFP upregulation” value in data set [2] is “only showed upregulation at the 17 h time point”.

Regarding “RQIKIWFQNRRMKWKK [ANT, cell-penetrating peptide …]”, the “Fold increase in fluorescence” value in data set [1] is “highest fold increase in fluorescence”. Further, in data set [2], the “Dynamics of sfGFP upregulation” value is recorded as “rapid upregulation at 4 h”.

As to “RRRRR [R5, cell-penetrating peptide RRRRR]”, in data set [2], the “Dynamics of sfGFP upregulation” value was “only showed upregulation at the 17 h time point”.

On to “RRWQW [L5a, cell-penetrating peptide RRWQW]”, for which the “Fold increase in fluorescence” value in data set [1] is reported as “negligible upregulation”.

On to “RXRRXRRXRRXRXB [cell-penetrating peptide RXRRXRRXRRXRXB, carrier for PNA]”, for which, in data set [1], the “Fold increase in fluorescence” value is given as “highest fold increase in fluorescence” and the “Speed of increase in fluorescence signal” value is recorded as “rapid increase in fluorescence signal”. For the same substance, in data set [5], the “Reporter activation (sfGFP fluorescence vs water control)” value was “highest reporter activation”. The “Dynamics of sfGFP upregulation” value in data set [2] is “rapid upregulation at 4 h”. The “Stability to proteolytic degradation” value in data set [6] (unconjugated carrier peptide, ref [47]) is recorded as “resistant to proteolytic degradation”.

For “VALLPAVLLA [Seq23, cell-penetrating peptide …]”, the “Fold increase in fluorescence” value in data set [1] is “none”. In addition, the “Reporter activation (sfGFP fluorescence vs water control)” value in data set [5] was “least effective PNA carrier”. In addition, the “Dynamics of sfGFP upregulation” value in data set [2] is “least active carrier”.
